Assay results reported in patent publication US20130225641A1, “ANTICANCER COMPOUNDS AND PREPARATION METHODS THEREOF” (priority 2010, published 2013).

Tests used:
LnCAP = assay: MTT cytotoxicity, LnCAP; type: cell-based; conditions: Homo sapiens, Prostatic, 72 hrs, read-out: LC50 (the source's name)
Procedure: (§1) The cytotoxicity of ZTP and ZTQ was analyzed by using human tumor cell lines. Human tumor cell lines were purchased from ATCC and NCI, and cultured in DMEM medium containing 10% FBS at 37° C. in 5% CO2 in an incubator. The cells grown to confluence were used for cytotoxicity analysis. The cells were digested with trypsin, washed with the culture medium, and then counted. 33 tumor cell lines were cultured. The cells were seeded at a density of 3000-6000 cells/well in a 96-well plate and incubated for 16-24 hrs. Then, various concentrations of ZTP or ZTQ dissolved in DMSO were added, and cultured for 72 hrs. The drug-treated cells and control cells were analyzed by MTT.

[1] = tested on: human colon cancer cells (HCT-116); assay: Transplantation model of human colon cancer (HCT-116) in nude mice; type: in vivo, nude mice (nu/nu); conditions: HCT-116 subcutaneous in nude mice; oral daily 5 days/week, 3 weeks; ZTP 30 mg/kg, ZTQ 60 mg/kg; lower = stronger
Procedure: (§2) T-cell deficient nude mice (nu/nu) of 6 weeks old were purchased from Charles River Laboratory, and housed and treated in a sterile environment following Institutional Animal Care & Use Committee Program. 48 mice were respectively subcutaneously inoculated on ribbed belly with 5×10^6 human liver cancer cells (HepG3B), human lung caner cells (NCI-H23), and human colon cancer cells (HCT-116) suspended in 0.2 ml HBSS/matrigel (50:50, V/V). When the tumor grew to have an average diameter of 7-8 mm and a volume of about 100-200 mm^3, 24 mice were picked up, and assigned to treatment groups (16 animals/2 groups), and a control group (8 animals). The 2 treatment groups were administered with the compounds ZTP and ZTQ dissolved in 15% Captsol respectively at a dose of 30 mg/kg and 60 mg/kg, and the control group only received an excipient (15% Captsol).
(§3) The same number of mice of each type was assigned to the control group and the treatment groups with the compounds ZTP and ZTQ respectively.
(§4) The dose schedule of the test compounds in the tumor transplanted nude mice was as follows: the compounds ZTP and ZTQ dissolved in 15% Captsol were daily orally administered as a 200 μl solution containing 0.75 mg of ZTP and 1.5 mg of ZTQ for 5 days/week over 3 consecutive weeks, followed by one-week break; and the control group was only administered with 200 μl of the placebo (15% Captsol) for 3 weeks, followed by 1 week of break. The two groups of animals were housed separately, and allowed to free access to food.
(§5) Evaluation of antitumor effect: the tumor size was measured every 3 or 4 days. The tumor volume was calculated using the equation below: […], in which a denotes the width (the shorter diameter), and b denotes the length (the longer diameter). Relative tumor volume (RTV) of each tumor refers to the ratio of the volume at a specified time to that at the beginning of the treatment. The average RTV for each treatment group was calculated. The antitumor activity was determined by calculating the tumor growth inhibition using a formula below. […]

[2] = MTT cytotoxicity, HUMEC human microvascular endothelial cell; type: cell-based; conditions: HUMEC human microvascular endothelial cells, read-out: LC50
Procedure: [Worded in the source for another cell line; this cell line is reported under the same test.] as §1

G-361 = assay: MTT cytotoxicity, G-361; type: cell-based; conditions: Homo sapiens, G-361, Skin (melanoma), 72 hrs, read-out: LC50 (the source's name)
Procedure: as §1

PC3 = assay: MTT cytotoxicity, PC3; type: cell-based; conditions: Homo sapiens, PC-3, PC3, Prostatic, 72 hrs, read-out: LC50 (the source's name)
Procedure: as §1

IGROV1 = assay: MTT cytotoxicity, IGROV1; type: cell-based; conditions: Homo sapiens, IGROV-1, IGROV1, Ovarian, 72 hrs, read-out: LC50 (the source's name)
Procedure: as §1

[3] = Pharmacokinetic study in mice; type: in vivo; conditions: both sexes, mouse, po, BALB/c mice, single dose of 100 mg/kg orally by gavage, plasma, Mean +/− SD; for half-life: read-out: T½ (converted)
Procedure: BALB/c mice (2 males and 2 females) of 8 weeks old were administered with the compounds ZTP and ZTQ (formulated with 15% Captsol or a carrier) at a single dose of 100 mg/kg. 0.5, 1, 3, 6, 12, 24, 48, and 72 hrs after administration, blood was taken from ophthalmic vein and plasma was prepared therefrom, to determine the plasma concentrations of ZTP and ZTQ. The pharmacokinetic parameters of the compounds ZTP and ZTQ given orally by gavage in the 4 mice are summarized as below (Tables 2 and 3): […]

[4] = tested on: human lung cancer cells (NCI-H23); assay: Transplantation model of human lung cancer (NCI-H23) in nude mice; type: in vivo, nude mice (nu/nu); conditions: NCI-H23 subcutaneous in nude mice; oral daily 5 days/week, 3 weeks; ZTP 30 mg/kg, ZTQ 60 mg/kg; lower = stronger
Procedure: as §2, §3, §4, §5

MDA-MB-231 = assay: MTT cytotoxicity, MDA-MB-231; type: cell-based; conditions: Homo sapiens, MDA-MB-231, Breast, 72 hrs, read-out: LC50 (the source's name)
Procedure: as §1

AU-565 = assay: MTT cytotoxicity, AU-565; type: cell-based; conditions: Homo sapiens, AU565, AU-565, Breast, 72 hrs, read-out: LC50 (the source's name)
Procedure: as §1

ACHN = assay: MTT cytotoxicity, ACHN; type: cell-based; conditions: Homo sapiens, Renal, 72 hrs, read-out: LC50 (the source's name)
Procedure: as §1

A549 = assay: MTT cytotoxicity, A549; type: cell-based; conditions: Homo sapiens, A549, Lung, 72 hrs, read-out: LC50 (the source's name)
Procedure: as §1

LoVo = assay: MTT cytotoxicity, LoVo; type: cell-based; conditions: Homo sapiens, Colonic, 72 hrs, read-out: LC50 (the source's name)
Procedure: as §1

Mid PaCa-2 = assay: MTT cytotoxicity, Mid PaCa-2; type: cell-based; conditions: Homo sapiens, Mid PaCa-2, Pancreatic, 72 hrs, read-out: LC50 (the source's name)
Procedure: as §1

MCF-7 = assay: MTT cytotoxicity, MCF-7; type: cell-based; conditions: Homo sapiens, MCF7, MCF-7, Breast, 72 hrs, read-out: LC50 (the source's name)
Procedure: as §1

D145 = assay: MTT cytotoxicity, D145; type: cell-based; conditions: Homo sapiens, D145, Prostatic, 72 hrs, read-out: LC50 (the source's name)
Procedure: as §1

SMILES	CC50 (LnCAP) [nM]	TGI (T/C×100) [1] [%]	CC50 at 72 h [2] [nM]	CC50 (G-361) [nM]	CC50 (PC3) [nM]	CC50 (IGROV1) [nM]	Cmax [3] [µM]	Tmax [3] [h]	half-life [3] [h]	TGI (T/C×100) [4] [%]	CC50 (MDA-MB-231) [nM]	CC50 (AU-565) [nM]	CC50 (ACHN) [nM]	CC50 (A549) [nM]	CC50 (LoVo) [nM]	CC50 (Mid PaCa-2) [nM]	CC50 (MCF-7) [nM]	CC50 (D145) [nM]
CNC(=O)c1cc(Sc2ccc(NC(=S)Nc3ccc(Cl)c(C(F)(F)F)c3)cc2)ccn1 [ZTQ, N-[4-chloro-3-(trifluoromethyl)phenyl]-[4-(N-methyl-formamide)(4-pyridylthio)phenyl]-thiourea]	820	6.45	19	1360	1050	730	52	6.6	4.2	9.21	1030	1370	1210	1010	1100	910	1700	1230
CNC(=O)c1cc(Oc2ccc(NC(=S)Nc3ccc(Cl)c(C(F)(F)F)c3)cc2)ccn1 [ZTP, N-[4-chloro-3-(trifluoromethyl)phenyl]-[4-(N-methyl-formamide)(4-pyridyloxy)phenyl]-thiourea]	1050	29.2	31	1910	1310	920	51	6.4	4.1	10	1190	1890	1610	1220	1310	1250	2210	1590
